Laboratory results as given in article PMC4072711, “A GPBAR1 (TGR5) Small Molecule Agonist Shows Specific Inhibitory Effects on Myeloid Cell Activation In Vitro and Reduces Experimental Autoimmune Encephalitis (EAE) In Vivo” (PLoS ONE, 2014).
pEC50: −log10 of the molar value.

Target: T1, GPBAR1 (TGR5) (Homo sapiens, UniProt Q8TDU6)
T1 sequence (Q8TDU6 1-330): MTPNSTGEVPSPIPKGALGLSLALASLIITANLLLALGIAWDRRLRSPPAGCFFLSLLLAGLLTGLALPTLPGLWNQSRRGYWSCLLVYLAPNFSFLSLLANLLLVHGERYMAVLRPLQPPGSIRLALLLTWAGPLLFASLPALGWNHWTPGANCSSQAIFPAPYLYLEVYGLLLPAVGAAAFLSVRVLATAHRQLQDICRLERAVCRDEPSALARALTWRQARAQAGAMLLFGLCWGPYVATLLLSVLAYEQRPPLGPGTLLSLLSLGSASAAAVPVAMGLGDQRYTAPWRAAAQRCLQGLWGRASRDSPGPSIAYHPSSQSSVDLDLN
Assay: AlphaScreen cAMP assay in CHO cells expressing human GPBAR1; no response in parental CHO cells

pEC50: 8.05
Substance: BIX02694
